Reference: PubChem BioAssay (NCI)
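Abbreviation: GI50, concentration required for 50% inhibition of growth. TGI is the concentration that stops growth completely.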

Key:
Assay in all cases: growth of human tumour cells (NCI), 384-well format
M14 melanoma = system: M14 melanoma
CCRF-CEM leukemia = system: CCRF-CEM leukemia
HCC-2998 colon = system: HCC-2998 colon
MCF7 breast = system: MCF7 breast
LOX IMVI melanoma = system: LOX IMVI melanoma
OVCAR-8 ovarian = system: OVCAR-8 ovarian
HOP-92 NSCLC = system: HOP-92 NSCLC
SF-295 CNS = system: SF-295 CNS
MDA-MB-435 melanoma = system: MDA-MB-435 melanoma
SF-539 CNS = system: SF-539 CNS
MOLT-4 leukemia = system: MOLT-4 leukemia
SK-OV-3 ovarian = system: SK-OV-3 ovarian
NCI-H322M lung = system: NCI-H322M lung
HS 578T breast = system: HS 578T breast
SK-MEL-2 melanoma = system: SK-MEL-2 melanoma
MALME-3M melanoma = system: MALME-3M melanoma
HOP-62 NSCLC = system: HOP-62 NSCLC
UO-31 renal = system: UO-31 renal
HL-60(TB) leukemia = system: HL-60(TB) leukemia
BT-549 breast = system: BT-549 breast
UACC-62 melanoma = system: UACC-62 melanoma
NCI/ADR-RES ovarian = system: NCI/ADR-RES ovarian
SK-MEL-5 melanoma = system: SK-MEL-5 melanoma
HCT-15 colon = system: HCT-15 colon
SR leukemia = system: SR leukemia
NCI-H522 lung = system: NCI-H522 lung
SNB-75 CNS = system: SNB-75 CNS
RXF 393 renal = system: RXF 393 renal
786-0 renal = system: 786-0 renal
KM12 colon = system: KM12 colon
NCI-H460 NSCLC = system: NCI-H460 NSCLC
A498 renal = system: A498 renal
K-562 leukemia = system: K-562 leukemia
SF-268 CNS = system: SF-268 CNS
NCI-H23 lung = system: NCI-H23 lung
OVCAR-4 ovarian = system: OVCAR-4 ovarian
ACHN renal = system: ACHN renal
EKVX NSCLC = system: EKVX NSCLC
U251 glioblastoma = system: U251 glioblastoma
IGROV1 ovarian = system: IGROV1 ovarian
HCT-116 colon = system: HCT-116 colon
CAKI-1 renal = system: CAKI-1 renal
UACC-257 melanoma = system: UACC-257 melanoma
SNB-19 CNS = system: SNB-19 CNS
T-47D breast = system: T-47D breast
TK-10 renal = system: TK-10 renal
OVCAR-3 ovarian = system: OVCAR-3 ovarian
NCI-H226 lung = system: NCI-H226 lung
SK-MEL-28 melanoma = system: SK-MEL-28 melanoma
DU-145 prostate = system: DU-145 prostate
SW-620 colon = system: SW-620 colon
A549 NSCLC = system: A549 NSCLC
HT29 colon = system: HT29 colon
RPMI-8226 leukemia = system: RPMI-8226 leukemia
OVCAR-5 ovarian = system: OVCAR-5 ovarian
PC-3 prostate = system: PC-3 prostate
SN12C renal = system: SN12C renal
MDA-MB-468 breast = system: MDA-MB-468 breast
MDA-MB-231 breast = system: MDA-MB-231 breast

`Nc1nc(Cl)nc2c1ncn2C1OC(CO)C(O)C1F` (stereo unspecified) gave a GI50 (M14 melanoma) of 74.8 nM, a TGI (M14 melanoma) of 290 nM and a GI50 (CCRF-CEM leukemia) of 15.7 nM. The TGI (CCRF-CEM leukemia) was 29.7 nM, the GI50 (HCC-2998 colon) was 34.6 nM and the TGI (HCC-2998 colon) was > 100000 nM. The GI50 (MCF7 breast) was 200 nM, the TGI (MCF7 breast) was > 100000 nM and the GI50 (LOX IMVI melanoma) was 306 nM. The TGI (LOX IMVI melanoma) was 880 nM, the GI50 (OVCAR-8 ovarian) was 31.5 nM and the TGI (OVCAR-8 ovarian) was > 100000 nM. For the same molecule, the GI50 (HOP-92 NSCLC) was 301 nM, the TGI (HOP-92 NSCLC) was > 100000 nM and the GI50 (SF-295 CNS) was 724 nM. The TGI (SF-295 CNS) was 1610 nM, the GI50 (MDA-MB-435 melanoma) was 261 nM and the TGI (MDA-MB-435 melanoma) was > 100000 nM. The GI50 (SF-539 CNS) was 612 nM, the TGI (SF-539 CNS) was 1820 nM and the GI50 (MOLT-4 leukemia) was 14.8 nM. For the same molecule, the TGI (MOLT-4 leukemia) was 28.3 nM, the GI50 (SK-OV-3 ovarian) was 315 nM and the TGI (SK-OV-3 ovarian) was > 100000 nM. For the same molecule, the GI50 (NCI-H322M lung) was 1850 nM, the TGI (NCI-H322M lung) was > 100000 nM and the GI50 (HS 578T breast) was 430 nM. For the same molecule, the TGI (HS 578T breast) was > 22800 nM, the GI50 (SK-MEL-2 melanoma) was 304 nM and the TGI (SK-MEL-2 melanoma) was 697 nM. The GI50 (MALME-3M melanoma) was 375 nM, the TGI (MALME-3M melanoma) was > 100000 nM and the GI50 (HOP-62 NSCLC) was 41.9 nM. It also gave a TGI (HOP-62 NSCLC) of 150 nM, a GI50 (UO-31 renal) of 234 nM and a GI50 (HL-60(TB) leukemia) of 20.5 nM. For the same molecule, the TGI (HL-60(TB) leukemia) was 36.8 nM, the GI50 (BT-549 breast) was 77.4 nM and the TGI (BT-549 breast) was 483 nM. The GI50 (UACC-62 melanoma) was 208 nM, the TGI (UACC-62 melanoma) was 476 nM and the GI50 (NCI/ADR-RES ovarian) was 35.7 nM. For the same molecule, the TGI (NCI/ADR-RES ovarian) was 1240 nM, the GI50 (SK-MEL-5 melanoma) was 61.6 nM and the TGI (SK-MEL-5 melanoma) was 160 nM. For the same molecule, the GI50 (HCT-15 colon) was 202 nM, the TGI (HCT-15 colon) was > 100000 nM and the GI50 (SR leukemia) was 212 nM. The TGI (SR leukemia) was 380 nM, the GI50 (NCI-H522 lung) was 165 nM and the TGI (NCI-H522 lung) was > 28900 nM. The GI50 (SNB-75 CNS) was 1260 nM, the TGI (SNB-75 CNS) was 7990 nM and the GI50 (RXF 393 renal) was 7360 nM. The TGI (RXF 393 renal) was > 100000 nM, the GI50 ([…]-0 renal) was 97.5 nM and the GI50 (KM12 colon) was 323 nM. The TGI (KM12 colon) was > 100000 nM, the GI50 (NCI-H460 NSCLC) was 177 nM and the TGI (NCI-H460 NSCLC) was 376 nM. The GI50 (A498 renal) was 324 nM, the TGI (A498 renal) was > 23100 nM and the GI50 (K-562 leukemia) was 80.4 nM. The TGI (K-562 leukemia) was > 100000 nM, the GI50 (SF-268 CNS) was 170 nM and the TGI (SF-268 CNS) was 692 nM. The GI50 (NCI-H23 lung) was 37.7 nM, the TGI (NCI-H23 lung) was 114 nM and the GI50 (OVCAR-4 ovarian) was > 100000 nM. For the same molecule, the TGI (OVCAR-4 ovarian) was > 100000 nM, the GI50 (ACHN renal) was 122 nM and the TGI (ACHN renal) was 427 nM. For the same molecule, the GI50 (EKVX NSCLC) was 914 nM, the GI50 (U251 glioblastoma) was 259 nM and the TGI (U251 glioblastoma) was 2700 nM. The GI50 (IGROV1 ovarian) was 419 nM, the TGI (IGROV1 ovarian) was > 100000 nM and the GI50 (HCT-116 colon) was 57.6 nM. For the same molecule, the TGI (HCT-116 colon) was > 100000 nM, the GI50 (CAKI-1 renal) was 91.5 nM and the GI50 (UACC-257 melanoma) was 412 nM. The GI50 (SNB-19 CNS) was 72.6 nM, the GI50 (T-47D breast) was 2850 nM and the TGI (T-47D breast) was > 100000 nM. For the same molecule, the GI50 (TK-10 renal) was 532 nM, the TGI (TK-10 renal) was > 100000 nM and the GI50 (OVCAR-3 ovarian) was 550 nM. The TGI (OVCAR-3 ovarian) was > 100000 nM, the GI50 (NCI-H226 lung) was 775 nM and the TGI (NCI-H226 lung) was 3580 nM. The GI50 (SK-MEL-28 melanoma) was 106 nM, the TGI (SK-MEL-28 melanoma) was > 100000 nM and the GI50 (DU-145 prostate) was 277 nM. The GI50 (SW-620 colon) was 401 nM, the TGI (SW-620 colon) was > 100000 nM and the GI50 (A549 NSCLC) was 176 nM. For the same molecule, the TGI (A549 NSCLC) was > 100000 nM, the GI50 (HT29 colon) was 510 nM and the TGI (HT29 colon) was > 100000 nM. For the same molecule, the GI50 (RPMI-8226 leukemia) was 1730 nM, the TGI (RPMI-8226 leukemia) was 3780 nM and the GI50 (OVCAR-5 ovarian) was 515 nM. For the same molecule, the TGI (OVCAR-5 ovarian) was > 100000 nM, the GI50 (PC-3 prostate) was > 20900 nM and the TGI (PC-3 prostate) was > 100000 nM. For the same molecule, the GI50 (SN12C renal) was 56.1 nM, the TGI (SN12C renal) was 401 nM and the GI50 (MDA-MB-468 breast) was 253 nM. For the same molecule, the TGI (MDA-MB-468 breast) was 699 nM, the GI50 (MDA-MB-231 breast) was 346 nM and the TGI (MDA-MB-231 breast) was > 100000 nM.
